{"source": "patent US10815276B2", "about": "“Cell penetrating peptides and methods of making and using thereof” (Entrada Therapeutics, Inc., priority 2014, dated 2020)", "key": {"[1]": {"biological_target": "CAL-PDZ domain (Homo sapiens, UniProt Q9HD26)", "assay": "Fluorescence anisotropy binding to CAL-PDZ", "details": "absence of a reducing agent", "description": "The full fluorescence anisotropy (FA) titration experiment was performed by incubating 100 nM fluorophore-labeled peptidyl ligands with varying concentrations (0-6 μM) of CAL-PDZ (Cushing, P R et al. […] The FA values were measured on a Molecular Devices Spectramax M5 spectrofluorimeter, with excitation and emission wavelengths at 485 nm and 525 nm, respectively. Equilibrium dissociation constants (KD) were determined by plotting the fluorescence anisotropy values as a function of CAL-PDZ concentration. The titration curves were fitted to the following equation, which assumes a 1:1 binding stoichiometry\nwhere Y is the measured anisotropy at a given CAL-PDZ concentration x; L is the bicyclic peptide concentration; Qb/Qf is the correction fact for dye-protein interaction; Amax is the maximum anisotropy when all the peptides are bound to CAP-PDZ, while Amin is the minimum anisotropy when all the peptides are free."}, "[2]": {"tested_on": "HeLa cells", "assay": "Live-cell confocal microscopy of FITC-labeled peptides", "type": "cell-based, human", "details": "5 μM", "description": "To detect peptide internalization, 1 mL of HeLa cell suspension (5×10^4 cells) was seeded in a 35 mm glass-bottomed microwell dish (MatTek) and cultured overnight. Cells were gently washed with DPBS twice and treated with FITC labeled peptides (5 μM) and dextran^Rho (0.5 mg mL^−1) in phenol-red free DMEM containing 1% serum at 37° C. for 1 h in the presence of 5% CO2. After removal of the medium, the cells were gently washed with DPBS twice and incubated with 5 μM DRAQS in DPBS for 10 min. The cells were again washed with DPBS twice and imaged on a Visitech Infinity 3 Hawk 2D-array live cell imaging confocal microscope. Images were captured under the same parameters and adjusted under the same setting using MetaMorph (Molecular Devices)."}, "[3]": {"tested_on": "Bronchial epithelial CFBE cells", "assay": "Immunofluorescent staining of ΔF508-CFTR", "type": "cell-based", "details": "10 μM Corr-4a and 50 μM unlabeled peptide 8", "description": "After the treatments, cells were fixed in cold methanol for 20 min. The slides were then incubated in 1% BSA/PBS for 10 min, followed by incubation at 37° C. for 1 h with mouse anti-human monoclonal CFTR antibody (R&D Systems). Thereafter, the slides were incubated at 37° C. for 45 min with Alexa Fluor® 488-conjugated anti-mouse IgG2a secondary antibody. Cells were visualized on a Leica TCS SP2 AOBS confocal laser scanning microscope. All measurements were conducted in a double-blinded manner by two independent investigators."}, "[4]": {"tested_on": "ΔF508-CFTR CFBE cells", "assay": "SPQ intracellular chloride concentration assay", "type": "cell-based", "details": "20 μM VX809 and 50 μM peptide 8", "description": "A SPQ (6-Methoxy-N-(3-sulfopropyl)quinolinium) assay was utilized to estimate the transport activity of ΔF508-CFTR activity in CFBE cells, as the fluorescence of SPQ is negatively correlated with increasing concentration of intracellular chloride (Illsley, N P and Verkman, A S. Biochemistry 1987, 26, 1215). CFBE cells were grown on 96-well plate, which was pre-coated with 1 mg/ml human fibronectin, 3 mg/ml collagen I bovine, and 1 mg/ml bovine serum albumin, using DMEM media supplemented with L-glutamine and 10% FBS. […] Cells were then loaded with SPQ using hypotonic shock at 37° C. for 15 min with 10 mM SPQ containing 1:1 (v/v) Opti-MEM/water solution. The cells were then washed and incubated twice for 10 min with fluorescence quenching NaI buffer (130 mM NaI, 5 mM KNO3, 2.5 mM Ca(NO3)2, 2.5 mM Mg(NO3)2, 10 mM D-glucose, 10 mM N-(2-hydroxyethyl) piperazine-N′-(2-ethanesulfonic) acid (HEPES, pH 7.4)). […] Fluorescence non-specific to CFTR-mediated iodide efflux was measured by incubating the cells with the activation cocktail and the CFTR specific inhibitor GlyH101 (10 μM). The effects of CAL-PDZ inhibitors were evaluated by the fluorescence increasing rate above the basal level. The fluorescence of dequenched SPQ was measured using the plate reader VICTOR X3 (Perkin Elmer) with excitation wavelength at 350 nm and DAPI emission filter. […]"}, "[5]": {"tested_on": "HeLa cells", "assay": "MTT proliferation assay with Pin1 inhibitors", "type": "cell-based, human", "details": "MTT", "description": "HeLa cells (100 μL/each well, 5×10^4 cells/mL) were seeded in a 96-well culture plate and allowed to grow overnight in DMEM supplemented with 10% FBS. […] After that, 10 μL of a MTT stock solution (5 mg/mL) was added into each well. The plate was incubated at 37° C. for 4 h and 100 μL of SDS-HCl solubilizing solution was added into each well, followed by thorough mixing. The plate was incubated at 37° C. overnight and the absorbance of the formazan product was measured at 570 nm on a Molecular Devices Spectramax M5 plate reader. Each experiment was performed in triplicates and the cells untreated with peptide were used as control."}, "[6]": {"biological_target": "T1, PTP1B (Homo sapiens, UniProt P18031)", "T1 construct": "The gene coding for the catalytic domain of PTP1B (amino acids 1-321) was amplified; made in house; host or cells: prokaryotic vector pET-22b(+)-ybbR", "T1 sequence (P18031 1-321)": "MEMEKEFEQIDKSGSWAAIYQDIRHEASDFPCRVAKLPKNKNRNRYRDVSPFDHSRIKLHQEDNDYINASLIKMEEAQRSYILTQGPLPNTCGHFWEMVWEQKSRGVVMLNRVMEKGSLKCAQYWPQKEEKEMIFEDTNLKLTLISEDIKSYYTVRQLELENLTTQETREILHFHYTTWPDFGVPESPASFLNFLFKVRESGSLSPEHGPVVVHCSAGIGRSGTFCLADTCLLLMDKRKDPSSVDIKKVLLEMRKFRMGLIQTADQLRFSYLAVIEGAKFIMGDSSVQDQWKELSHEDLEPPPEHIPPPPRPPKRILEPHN", "assay": "PTP inhibition assay (pNPP)", "type": "biochemical", "details": "monocyclic peptide inhibitors", "description": "(§1) PTP assays were performed in a quartz microcuvette (total volume 150 μL). The reaction mixture contains 100 mM Tris-HCl, pH 7.4, 50 mM NaCl, 2 mM EDTA, 1 mM TCEP, 0-1 μM of PTP inhibitor, and 500 μM para-nitrophenyl phosphate (pNPP). The enzymatic reaction was initiated by the addition of PTP (final concentration 15-75 nM) and monitored continuously at 405 nm on a UV-VIS spectrophotometer. Initial rates were calculated from the reaction progress curves (typically <60 s). The half-maximal inhibition constant (IC50) was defined as the concentration of an inhibitor that reduced the enzyme activity to 50% and was obtained by plotting the rates (V) against the inhibitor concentration [I] and fitting the data against the equation\n[formula] where V0 is the enzymatic reaction rate in the absence of inhibitor. […] The reaction rate (V) was plotted against the pNPP concentration ([S]) and fitted against the equation\n[formula] to obtain the Michaelis constant K. The Ki value was obtained by plotting the K values against the inhibitor concentration [I] and fitted to equation\n[formula] where K0 is the Michaelis constant in the absence of inhibitor ([I]=0)."}, "[7]": {"tested_on": "A549 lung cancer cells", "assay": "Live-cell confocal microscopy of FITC-labeled PTP1B inhibitors", "type": "cell-based, human", "details": "5 μM FITC-labeled inhibitor, 2 h", "description": "Approximately 5×10^4 A549 cells were seeded in 35-mm glass-bottomed microwell dish (MatTek) containing 1 mL of media and cultured for one day. A549 cells were gently washed with DPBS once and treated with the FITC-labeled PTP1B inhibitors (5 μM), dextran^Rho (1 mg mL^−1) in growth media for 2 h at 37° C. in the presence of 5% CO2. The peptide-containing media was removed and the cells were washed with DPBS three times and incubated for 10 min in 1 mL of DPBS containing 5 μM DRAQS. The cells were again washed with DPBS twice. Then the cells were imaged on a Visitech Infinity 3 Hawk 2D-array live cell imaging confocal microscope (with a 60× oil immersion lens) at 37° C. in the presence of 5% CO2. Live-cell confocal microscopic imaging of HEK293 cells after treatment with FITC-labeled Pin1 inhibitors were similarly conducted."}, "[8]": {"biological_target": "HePTP (Homo sapiens, UniProt P35236)", "sequence (P35236 whole entry, species assumed)": "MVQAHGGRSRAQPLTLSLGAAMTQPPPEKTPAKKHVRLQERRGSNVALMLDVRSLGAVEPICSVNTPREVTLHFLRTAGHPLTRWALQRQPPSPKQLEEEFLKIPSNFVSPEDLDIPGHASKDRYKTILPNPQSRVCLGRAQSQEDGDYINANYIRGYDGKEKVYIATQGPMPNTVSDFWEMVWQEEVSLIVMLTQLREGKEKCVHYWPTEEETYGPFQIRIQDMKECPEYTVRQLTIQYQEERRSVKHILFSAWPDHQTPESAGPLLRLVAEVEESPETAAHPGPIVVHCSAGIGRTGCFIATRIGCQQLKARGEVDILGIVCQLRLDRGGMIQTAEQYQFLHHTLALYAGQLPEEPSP", "assay": "PTP inhibition assay (pNPP)", "type": "biochemical", "details": "1 μM inhibitor", "description": "as §1"}, "[9]": {"biological_target": "PTPH1 (Homo sapiens, UniProt P26045)", "sequence (P26045 whole entry, species assumed)": "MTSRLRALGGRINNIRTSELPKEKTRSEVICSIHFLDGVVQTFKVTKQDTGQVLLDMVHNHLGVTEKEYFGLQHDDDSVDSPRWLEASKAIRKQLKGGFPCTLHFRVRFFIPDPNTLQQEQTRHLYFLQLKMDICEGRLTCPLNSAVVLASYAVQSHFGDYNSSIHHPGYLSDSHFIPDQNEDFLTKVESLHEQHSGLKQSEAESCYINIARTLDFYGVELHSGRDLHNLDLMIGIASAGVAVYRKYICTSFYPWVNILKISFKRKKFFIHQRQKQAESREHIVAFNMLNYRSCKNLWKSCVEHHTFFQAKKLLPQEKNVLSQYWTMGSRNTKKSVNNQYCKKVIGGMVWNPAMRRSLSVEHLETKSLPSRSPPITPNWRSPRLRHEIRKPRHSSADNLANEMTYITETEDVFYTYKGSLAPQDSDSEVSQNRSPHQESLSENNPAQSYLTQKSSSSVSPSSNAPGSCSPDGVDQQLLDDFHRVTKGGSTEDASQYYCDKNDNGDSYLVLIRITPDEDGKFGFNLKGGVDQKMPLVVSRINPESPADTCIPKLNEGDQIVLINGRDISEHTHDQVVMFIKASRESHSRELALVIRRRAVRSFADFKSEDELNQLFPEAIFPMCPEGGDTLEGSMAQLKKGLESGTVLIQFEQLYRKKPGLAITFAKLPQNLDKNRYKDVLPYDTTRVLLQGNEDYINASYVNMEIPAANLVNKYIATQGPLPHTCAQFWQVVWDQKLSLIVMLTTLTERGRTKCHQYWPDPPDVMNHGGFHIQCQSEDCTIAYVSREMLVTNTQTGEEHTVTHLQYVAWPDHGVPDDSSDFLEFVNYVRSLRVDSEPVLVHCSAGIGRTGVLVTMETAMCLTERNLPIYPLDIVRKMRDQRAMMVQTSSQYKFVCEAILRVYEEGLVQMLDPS", "assay": "PTP inhibition assay (pNPP)", "type": "biochemical", "details": "1 μM inhibitor", "description": "as §1"}, "[10]": {"biological_target": "PTPRC (Homo sapiens, UniProt P08575)", "sequence (P08575 26-1306, species assumed)": "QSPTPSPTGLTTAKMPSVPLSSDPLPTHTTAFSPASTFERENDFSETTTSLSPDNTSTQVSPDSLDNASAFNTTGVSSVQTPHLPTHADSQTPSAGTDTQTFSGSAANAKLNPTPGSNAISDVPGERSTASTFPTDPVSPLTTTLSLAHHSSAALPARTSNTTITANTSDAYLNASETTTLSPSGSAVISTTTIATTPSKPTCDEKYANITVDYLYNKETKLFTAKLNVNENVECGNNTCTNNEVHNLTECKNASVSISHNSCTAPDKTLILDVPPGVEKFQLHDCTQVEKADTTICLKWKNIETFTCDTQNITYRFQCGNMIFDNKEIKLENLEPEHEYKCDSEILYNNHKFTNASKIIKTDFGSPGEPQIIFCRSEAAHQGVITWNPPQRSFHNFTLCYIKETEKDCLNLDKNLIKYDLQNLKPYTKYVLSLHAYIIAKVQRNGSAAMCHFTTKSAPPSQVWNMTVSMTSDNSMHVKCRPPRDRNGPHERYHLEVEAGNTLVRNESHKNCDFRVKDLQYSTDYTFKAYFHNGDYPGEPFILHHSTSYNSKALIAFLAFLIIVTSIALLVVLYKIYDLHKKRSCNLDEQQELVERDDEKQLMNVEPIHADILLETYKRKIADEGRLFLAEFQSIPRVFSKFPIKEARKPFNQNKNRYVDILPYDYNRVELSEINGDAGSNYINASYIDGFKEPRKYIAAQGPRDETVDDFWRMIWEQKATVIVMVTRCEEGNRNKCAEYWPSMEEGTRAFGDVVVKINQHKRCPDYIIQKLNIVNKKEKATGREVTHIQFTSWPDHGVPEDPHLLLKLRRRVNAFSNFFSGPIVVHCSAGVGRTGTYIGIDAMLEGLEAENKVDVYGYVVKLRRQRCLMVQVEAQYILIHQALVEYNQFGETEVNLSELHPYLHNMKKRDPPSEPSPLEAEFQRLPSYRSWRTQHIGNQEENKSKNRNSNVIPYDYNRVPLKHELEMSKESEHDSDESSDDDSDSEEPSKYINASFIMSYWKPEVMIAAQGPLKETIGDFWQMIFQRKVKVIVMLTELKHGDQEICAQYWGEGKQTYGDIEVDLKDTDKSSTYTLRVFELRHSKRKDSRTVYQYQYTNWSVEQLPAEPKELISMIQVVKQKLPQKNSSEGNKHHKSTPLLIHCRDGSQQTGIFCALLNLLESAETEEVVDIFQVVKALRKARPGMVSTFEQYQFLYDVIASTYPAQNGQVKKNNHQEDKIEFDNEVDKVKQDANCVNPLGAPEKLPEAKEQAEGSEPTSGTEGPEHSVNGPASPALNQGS", "assay": "PTP inhibition assay (pNPP)", "type": "biochemical", "details": "1 μM inhibitor", "description": "as §1"}, "[11]": {"biological_target": "PTPRO (Homo sapiens, UniProt Q16827)", "sequence (Q16827 30-1216)": "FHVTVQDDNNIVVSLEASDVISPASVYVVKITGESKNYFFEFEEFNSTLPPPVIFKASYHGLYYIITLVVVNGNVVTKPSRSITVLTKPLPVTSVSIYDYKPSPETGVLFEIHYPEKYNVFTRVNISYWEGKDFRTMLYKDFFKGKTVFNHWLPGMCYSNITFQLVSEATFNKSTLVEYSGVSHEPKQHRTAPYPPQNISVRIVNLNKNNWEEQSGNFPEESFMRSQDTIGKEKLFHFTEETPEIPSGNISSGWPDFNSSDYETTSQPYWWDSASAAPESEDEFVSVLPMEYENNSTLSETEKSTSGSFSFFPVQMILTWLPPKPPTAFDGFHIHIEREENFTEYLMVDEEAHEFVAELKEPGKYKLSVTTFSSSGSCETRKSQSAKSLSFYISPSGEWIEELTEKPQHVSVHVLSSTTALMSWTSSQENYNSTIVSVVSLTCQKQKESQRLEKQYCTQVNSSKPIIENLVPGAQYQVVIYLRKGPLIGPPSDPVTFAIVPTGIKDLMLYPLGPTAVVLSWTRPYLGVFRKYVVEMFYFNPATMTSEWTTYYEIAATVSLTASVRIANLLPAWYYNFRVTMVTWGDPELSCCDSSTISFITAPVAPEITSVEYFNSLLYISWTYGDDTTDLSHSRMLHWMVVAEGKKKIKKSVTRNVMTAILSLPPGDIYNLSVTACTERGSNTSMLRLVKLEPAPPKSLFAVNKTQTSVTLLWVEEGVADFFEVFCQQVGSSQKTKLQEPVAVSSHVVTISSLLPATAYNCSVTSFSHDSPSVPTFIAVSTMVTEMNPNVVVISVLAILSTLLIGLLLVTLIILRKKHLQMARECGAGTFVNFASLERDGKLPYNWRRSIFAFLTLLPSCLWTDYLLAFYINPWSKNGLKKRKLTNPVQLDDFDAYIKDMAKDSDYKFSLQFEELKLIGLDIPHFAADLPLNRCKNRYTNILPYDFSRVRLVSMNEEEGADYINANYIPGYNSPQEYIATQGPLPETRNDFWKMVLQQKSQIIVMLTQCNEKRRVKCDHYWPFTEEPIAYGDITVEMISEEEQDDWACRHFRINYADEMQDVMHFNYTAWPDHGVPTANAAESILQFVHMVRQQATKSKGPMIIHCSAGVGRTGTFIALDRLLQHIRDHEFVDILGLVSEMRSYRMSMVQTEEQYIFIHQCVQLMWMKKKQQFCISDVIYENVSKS", "assay": "PTP inhibition assay (pNPP)", "type": "biochemical", "details": "1 μM inhibitor", "description": "as §1"}, "[12]": {"biological_target": "SHP1 (Homo sapiens, UniProt P29350)", "sequence (P29350 whole entry)": "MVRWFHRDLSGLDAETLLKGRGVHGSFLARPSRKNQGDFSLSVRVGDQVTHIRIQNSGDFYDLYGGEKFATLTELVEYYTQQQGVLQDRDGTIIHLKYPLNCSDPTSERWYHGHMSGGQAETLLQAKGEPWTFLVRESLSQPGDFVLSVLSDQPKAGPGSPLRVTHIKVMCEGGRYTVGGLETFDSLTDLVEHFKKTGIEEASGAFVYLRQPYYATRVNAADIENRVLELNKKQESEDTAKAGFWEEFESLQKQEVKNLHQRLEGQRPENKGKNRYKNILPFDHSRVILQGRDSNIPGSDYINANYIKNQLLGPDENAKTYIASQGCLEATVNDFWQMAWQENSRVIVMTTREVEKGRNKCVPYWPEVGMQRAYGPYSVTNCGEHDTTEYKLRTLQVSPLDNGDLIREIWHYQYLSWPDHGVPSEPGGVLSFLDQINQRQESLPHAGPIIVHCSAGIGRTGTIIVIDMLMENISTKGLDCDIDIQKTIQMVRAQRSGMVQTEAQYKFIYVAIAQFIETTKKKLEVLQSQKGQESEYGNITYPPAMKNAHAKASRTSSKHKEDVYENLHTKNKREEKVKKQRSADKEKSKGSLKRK", "assay": "PTP inhibition assay (pNPP)", "type": "biochemical", "details": "1 μM inhibitor; read-out: Inhibition of SHP-1", "description": "as §1"}, "[13]": {"assay": "Serum stability test (human serum)", "type": "in vitro ADME", "details": "25% human serum (supernatant after centrifugation), 24 h at 37° C., read-out: Degradation in human serum", "description": "The stability tests were carried by modifying a previously reported procedure (Nguyen, L T et al. PLoS One 2010, 5, e12684). Diluted human serum (25%) was centrifuged at 15,000 rpm for 10 min, and the supernatant was collected. A peptide stock solution was diluted into the supernatant to a final concentration of 5 μM and incubated at 37° C. At various time points (0-24 h), 200-μL aliquots were withdrawn and mixed with 50 μL of 15% trichloroacetic acid and incubated at 4° C. overnight. The final mixture was centrifuged at 15,000 rpm for 10 min in a microcentrifuge, and the supernatant was analyzed by reversed-phase HPLC equipped with a C18 column. The amount of remaining peptide (%) was determined by integrating the area underneath the peptide peak (monitored at 214 nm) and comparing with that of the control reaction (no serum)."}}, "note": "Starred links: 1 amine or outer side, 2 acyl side, 3 side chain; linkers in the order of their positions; H or OH if unused. Positions of bridges follow the written chain, without caps; N, C: chain ends. Non-standard residues stand in square brackets, D forms with d. Residues, ends and D or L forms follow the SMILES beside them. Trimesoyl = O=C(c1cc(C(=O)[*:2])cc(C(=O)[*:3])c1)[*:1]; F2Pmp = N[C@@H](Cc1ccc(C(F)(F)P(=O)(O)O)cc1)C(=O)O; 2Nal = N[C@@H](Cc1ccc2ccccc2c1)C(=O)O; Phg = N[C@H](C(=O)O)c1ccccc1; Pip = O=C(O)[C@@H]1CCCCN1; Dap = NC[C@H](N)C(=O)O", "data": [{"smiles": "C[C@@H]1NC(=O)[C@H](CCCNC(=N)N)NC(=O)[C@H](Cc2ccc3ccccc3c2)NC(=O)[C@@H]2CCCCN2C(=O)[C@@H]([C@H](C)O)NC(=O)[C@H](c2ccccc2)NC(=O)[C@H](Cc2c[nH]cn2)NC(=O)c2cc3cc(c2)C(=O)NC[C@H](NC(=O)[C@@H](C)NC1=O)C(=O)N[C@@H](Cc1ccccc1)C(=O)N[C@@H](Cc1ccc2ccccc2c1)C(=O)N[C@@H](CCCNC(=N)N)C(=O)N[C@@H](CCCNC(=N)N)C(=O)N[C@@H](CCCNC(=N)N)C(=O)N[C@@H](CCCNC(=N)N)C(=O)N[C@H](C(=O)N[C@@H](CCCCN)C(N)=O)CNC3=O", "note": "[Peptide 8, bicyclo[Tm-(His-Phg-D-Thr-Pip-Nal-Arg-Ala-D-Ala)-Dap-(Phe-Nal-Arg-Arg-Arg-Arg-Dap)]-Lys] (H[Phg][dT][Pip][2Nal]RA[dA][Dap]F[2Nal]RRRR[Dap]K-NH2; linker N-9-16 via Trimesoyl; C-terminus assumed)", "values": [{"measurement": "Binding to CAL-PDZ domain", "setting": "[1]", "result": "no detectable binding"}, {"measurement": "Intracellular FITC fluorescence (confocal)", "setting": "[2]", "result": "intense and diffuse fluorescence throughout the entire cell"}, {"measurement": "ΔF508-CFTR at the cell surface", "setting": "[3]", "result": "much greater amounts of the protein at the cell surface"}, {"measurement": "Ion channel activity of ΔF508-CFTR", "setting": "[4]", "result": "acted synergistically"}, {"measurement": "Effect on cell growth", "setting": "[5]", "result": "inhibited cell growth, but to a lesser extent than inhibitor 7"}]}, {"smiles": "CC(C)[C@H]1NC(=O)[C@H](CO)NC(=O)[C@H](CCC(N)=O)NC(=O)[C@H](Cc2ccccc2)NC(=O)[C@H](Cc2ccc3ccccc3c2)NC(=O)[C@H](CCCNC(=N)N)NC(=O)[C@H](CCCNC(=N)N)NC(=O)[C@H](CCCNC(=N)N)NC(=O)[C@H](CCCNC(=N)N)NC(=O)[C@H](Cc2c[nH]cn2)NC(=O)[C@H](Cc2ccc(C(F)(F)P(=O)(O)O)cc2)NC(=O)[C@@H]2CCCN2C1=O", "note": "[Monocyclic Inhibitor 2, cyclo(Ser-D-Val-Pro-F2Pmp-His-Arg-Arg-Arg-Arg-Nal-Phe-Gln)] (cyclo(S[dV]P[F2Pmp]HRRRR[2Nal]FQ))", "values": [{"measurement": "IC50", "setting": "[6]", "result": "~30", "unit": "nM"}, {"measurement": "Cellular uptake (confocal)", "setting": "[7]", "result": "poor cellular uptake"}]}, {"smiles": "CC(C)[C@H]1NC(=O)[C@H](CO)NC(=O)c2cc3cc(c2)C(=O)NC[C@H](NC(=O)[C@H](Cc2c[nH]cn2)NC(=O)[C@H](Cc2ccc(C(F)(F)P(=O)(O)O)cc2)NC(=O)[C@@H]2CCCN2C1=O)C(=O)N[C@@H](CCCNC(=N)N)C(=O)N[C@@H](CCCNC(=N)N)C(=O)N[C@@H](CCCNC(=N)N)C(=O)N[C@@H](CCCNC(=N)N)C(=O)N[C@@H](Cc1ccc2ccccc2c1)C(=O)N[C@@H](Cc1ccccc1)C(=O)N[C@H](C(=O)N[C@@H](CCCCN)C(N)=O)CNC3=O", "note": "[Bicyclic Inhibitor 4] (S[dV]P[F2Pmp]H[Dap]RRRR[2Nal]F[Dap]K-NH2; linker N-6-13 via Trimesoyl; C-terminus assumed)", "values": [{"measurement": "inhibition at 1 µM", "setting": "[8]", "result": "< 10", "unit": "%"}, {"measurement": "inhibition at 1 µM", "setting": "[9]", "result": "< 10", "unit": "%"}, {"measurement": "inhibition at 1 µM", "setting": "[10]", "result": "< 10", "unit": "%"}, {"measurement": "inhibition at 1 µM", "setting": "[11]", "result": "< 10", "unit": "%"}, {"measurement": "inhibition at 1 µM", "setting": "[12]", "result": "< 10", "unit": "%"}, {"measurement": "metabolised at 24 h, 5 μM", "setting": "[13]", "result": "~10", "unit": "%"}]}]}
